Non-standard residues stand in square brackets, D forms with d. Residues, ends and D or L forms follow the SMILES beside them. Phe(2-F) = N[C@@H](Cc1ccccc1F)C(=O)O; Orn = NCCC[C@H](N)C(=O)O; Dab = NCC[C@H](N)C(=O)O
Experiments:
[1] = molecular target: bovine serum albumin (BSA) (Bos taurus, UniProt P02769); assay: Fluorescence quenching of BSA by peptides L1–3
Experimental: Fluorescence spectroscopy was carried out to characterize the mechanism of the interaction between three plasma proteins, BSA, AAG, and GGF, with the studied peptides. The fluorescence spectra of protein were collected during titration of L1–L3. The excitation wavelength was set at λ = 280 nm (both Trp and Tyr residues were excited).
To confirm this, the fluorescence data were further analyzed by the Stern–Volmer Equation (1) after correction due to the infer filter effect (2):(1) F0/F=1+kqτ[Q]=1+KSV (2) Fcorr=Fobs10^(Aex+Aem)/2 where F0 and F are the fluorescence intensities (after correction) of the protein and protein in the presence of L1–3, respectively, kq is the quenching rate constant, τ0 the average lifetime, [Q] is the L1–3 concentration, Ksv is the Stern–Volmer constant, and Fcorr, and Fobs are the corrected and observed fluorescence intensities, respectively. Aex and Aem are the absorbance values at excitation and emission wavelengths, respectively. A linear regression fit was used to calculate the value of the Stern–Volmer constant (Ksv). Then, assuming the average lifetime of the fluorophore in the excited state for a biomolecule as 10^−8 s, the quenching rate constant (kq) was computed. For dynamic quenching, the maximum scatters collision quenching rate constant for different quenchers with the biopolymers was reported to be 2 × 10^10 dm^3mol^−1s^−1 [55, 56]. […] Collisional quenching occurs when the excited-state fluorophore is deactivated by contact with some other molecule in solution (by collisions). […] This is a dynamic mechanism of quenching. The quenching constant characterizes the quenching mechanism. The maximum value for collisional quenching is 2 × 10^10 dm^3mol^−1s^−1. […] For further confirmation, measurements were made at, in addition to 297 K, temperatures 303 and 308 K. Experimental data points were fitted and analyzed using Equation (1).
Both for the complexes with BSA and with GGF, the binding constant (Kb) and the binding stoichiometry (n) were calculated. […] The values of Kb and n were calculated from the slope and the intercept of the log [(F0 − F)/F] versus log [Q] plot (Figure 2).
The forces involved in the interaction can be identified by measurement at different temperatures and then by thermodynamic analysis. The signs of the thermodynamic parameters identify the type of interactions. The enthalpy change (ΔH°), the entropic change (ΔS°), and the free energy change (ΔG°) were calculated from Equations (4) and (5):(4) […]=−ΔH^°/RT+ΔS^°/R (5) ΔG^°=ΔH^°−TΔS^°=−RTlnKb where Kb is the binding constant and R is the universal gas constant. To determine the thermodynamic parameters, the van’t Hoff plot was first conducted, i.e., the temperature dependence of the binding constant, according to Equation (4). The Kb values at the three temperatures were fitted by the linear regression method. The values of ΔH and ΔS were calculated from the slope and intercept at the fitted line. Next, the free energy change (ΔG°) was obtained from Equation (5).

[2] = molecular target: T1, BSA (Bos taurus, UniProt P02769); details: 298 K, one-to-one stoichiometry; cited from earlier work
T1 construct: purchased Sigma Aldrich
T1 sequence (P02769 25-607): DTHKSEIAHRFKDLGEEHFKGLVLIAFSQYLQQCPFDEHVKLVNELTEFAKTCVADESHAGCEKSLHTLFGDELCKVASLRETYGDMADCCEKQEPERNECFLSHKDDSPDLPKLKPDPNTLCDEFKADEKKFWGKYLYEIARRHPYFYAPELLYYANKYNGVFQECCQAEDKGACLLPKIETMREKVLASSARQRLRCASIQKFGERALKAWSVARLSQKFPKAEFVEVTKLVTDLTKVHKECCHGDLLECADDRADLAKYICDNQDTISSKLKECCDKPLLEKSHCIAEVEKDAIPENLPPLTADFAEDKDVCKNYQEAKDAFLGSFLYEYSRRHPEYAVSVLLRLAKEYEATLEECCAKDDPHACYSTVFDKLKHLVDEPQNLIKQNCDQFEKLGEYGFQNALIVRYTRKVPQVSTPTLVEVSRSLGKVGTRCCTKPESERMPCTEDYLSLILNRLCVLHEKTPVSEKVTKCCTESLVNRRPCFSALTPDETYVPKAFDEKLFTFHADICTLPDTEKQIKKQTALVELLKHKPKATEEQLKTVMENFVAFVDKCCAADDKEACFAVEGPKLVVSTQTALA
Experimental: The enthalpy change (ΔH°), the entropic change (ΔS°), and the free energy change (ΔG°) were calculated from Equations (4) and (5):(4) […]=−ΔH^°/RT+ΔS^°/R (5) ΔG^°=ΔH^°−TΔS^°=−RTlnKb where Kb is the binding constant and R is the universal gas constant. To determine the thermodynamic parameters, the van’t Hoff plot w ...

[3] = 297 K, BSA 1.0 µM, phosphate buffer
[4] = 308 K, BSA 1.0 µM, phosphate buffer

Chain of bovine serum albumin (BSA) (P02769 25-607): as above

Row | binding constant Kb [1, 3] | binding constant Kb ([1]; 303 K, BSA 1.0 µM, phosphate buffer) | binding constant Kb [1, 4] | binding constant Kb ([1]; BSA, 297 K) | SMILES | Kb constant to BSA [2]
1 | 3.39 ± 0.06 × 10^4 dm^3mol^−1 | 1.10 ± 0.05 × 10^4 dm^3mol^−1 | 0.55 ± 0.02 × 10^4 dm^3mol^−1 | 3.39 × 10^4 dm^3mol^−1 | C[C@H](NC(=O)[C@H](CCN)NC(=O)[C@@H](N)CCCCN)C(=O)NCC(=O)N[C@@H](CCCN)C(=O)N1CCC[C@H]1C(=O)N[C@@H](Cc1c[nH]cn1)C(=O)N[C@@H](CCCCN)C(=O)N[C@@H](CCCNC(=N)N)C(=O)O [L2, Lys-Dab-Ala-Gly-Orn-Pro-His-Lys-Arg] (H-K[Dab]AG[Orn]PHKR-OH) | 
2 | 2.52 ± 0.07 × 10^4 dm^3mol^−1 |  | 0.76 ± 0.03 × 10^4 dm^3mol^−1 |  | N=C(N)NCCC[C@H](NC(=O)[C@H](CCCCN)NC(=O)[C@H](Cc1ccccc1F)NC(=O)[C@@H]1CCCN1C(=O)[C@H](CCCN)NC(=O)CNC(=O)[C@H](CCN)NC(=O)[C@H](CCN)NC(=O)[C@@H](N)CCCCN)C(=O)O [L3, Lys-Dab-Dab-Gly-Orn-Pro-Phe(2-F)-Lys-Arg] (H-K[Dab][Dab]G[Orn]P[Phe(2-F)]KR-OH) | 
3 |  |  |  |  | COc1cc2ncnc(Nc3ccc(F)c(Cl)c3)c2cc1OCCCN1CCOCC1 [gefitinib] | 8.32 × 10^4 dm^3mol^−1
4 |  |  |  |  | CS(=O)(=O)CCNCc1ccc(-c2ccc3ncnc(Nc4ccc(OCc5cccc(F)c5)c(Cl)c4)c3c2)o1 [lapatinib] | 2.24 × 10^5 dm^3mol^−1
5 |  |  |  |  | CCN(CC)CCNC(=O)c1c(C)[nH]c(/C=C2\C(=O)Nc3ccc(F)cc32)c1C [sunitinib] | 1.32 × 10^5 dm^3mol^−1

Reference: article PMC9918186, “Interaction of Positively Charged Oligopeptides with Blood Plasma Proteins” (International Journal of Molecular Sciences, 2023)
